Reference: patent US10640507B2, “PBD antibacterial agents” (KING'S COLLEGE LONDON, priority 2015, dated 2020)
Values after ≈ are worked out from the molar mass of the structure shown. Where two headings read alike, the source gives them in different places.

Experiments:
Format in all cases: cell-based
Psueudomonas GH12 = test: General MIC protocol, Gram negative; conditions: Pseudomonas
Description: General Minimum Inhibitory Concentration (MIC) Protocol
1. Grow up cultures of bacterial strains to be tested overnight.
2. Dilute down overnight cultures to concentration of 1×10^6 bacteria/ml (OD0.01) in Tryptic soy broth (TSB).
3. Add 100 μl of TSB media to column 2-column 12 in 96 well plate (keeping column 1 clear).
4. Make up compound to a concentration of 64 μg/ml in water (or alternatively to twice the chosen maximum concentration to be tested).
5. Add 100 μl of antibiotic solution to the 1st and 2nd columns.
6. Using a multichannel pipette take 100 μl from the 2nd column wells and pipette into 3rd column wells and repeat down the 96 well plate (remembering to include controls i.e. uninfected media and media with no antibiotic).
7. To each well (except uninfected control row H) add 100 μl of bacterially infected media at a concentration of 1×10^6/ml.
8. This dilutes down the concentration of the antibiotic by half (top dose is therefore 32 μg/ml in column 1) and also gives you a starting bacterial concentration of 5×10^5/ml.
9. Wrap plate with parafilm to prevent evaporation.
10. Leave at desired temperature (37° C. unless specified elsewhere) for 20 hours.
11. Next day check plates for growth and measure optical density (i.e. absorbance) at a wavelength of 600 nm (OD600).
An example of such a plate is shown in FIG. 1 where column A represents wells that receive the top dose 100 μl; column B represents wells that receive the top dose 100 μl+100 μl TSB; and column C represents wells that receive 100 μl TSB. Row H which is marked by a box labelled D represents a blank where the cells receive no bacteria.
The activity of the compound designated PP-A148 was tested against an extended panel of Klebsiella and Pseudomonas Gram-negative bacterial strains that have proven drug resistant difficult to treat. […] The minimum inhibitory concentration (MIC) was measured using the general MIC protocol given above.

[1] = test system: K. pneumonia - NCTC 13368; conditions: drug at 4×MIC
Description: 1. Grow bacteria overnight.
2. Subculture into an autoclaved conical flask containing 10 ml of TSB to an OD of 0.01 (˜1×10^7 Cfu/ml for KP-M6).
4. Take aliquots (100 μl) at timepoints (0, 1, 2, 4, 6, 24 hours) and carry out a serial dilution in PBS (to remove drug and to dilute bacteria to countable numbers).
5. Use the serial dilution to perform a Miles Misra—i.e. Add 3×10 μl spots of each dilution onto an agar plate. Incubate overnight and count colonies on spots in the morning.
6. Control: Subculture bacteria alongside samples but with no antibiotic added. Take aliquots from this at every time point (0, 1, 2, 4, 6, 24 hours) and perform Miles Misra on these too (as detailed in points 4 and 5 above).
7. After the first experiment, if the counts seen on Miles-Misra were zero, total viable counts were determined by spreading 200 μl in a streak down the centre of a TSB agar plate, waiting for the liquid to be absorbed and then spreading over the plate and checking for growth inhibition at the sight of the original streak.
8. The compound is considered bactericidal if the inoculum was reduced >3 log10 CFU/ml and bacteriostatic if inoculum was reduced by 0-3 log10 CFU/ml.
Three measurements were taken for each compound at each time point. These measurements were averaged and the standard deviation was also calculated.

K. pneumonia KP16 = test: General MIC protocol, Gram negative; conditions: Klebsiella pneumoniae, KP16
Summary of the method: (§1)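 Read-out: OD600 after 20 h at 37° C, alongside visual growth check. Wells held TSB, compound serially halved from 32 μg/ml final, and bacteria at 5×10^5/ml starting density; no-antibiotic and uninfected controls included.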

A. baumannii AYE = test: General MIC protocol, Gram negative; conditions: Acinetobacter baumannii
Summary of the method: as §1

K. pneumonia NCTC 13368 = test: General MIC protocol, Gram negative; conditions: Klebsiella pneumoniae, NCTC13368
Summary of the method: as §1

K. pneumonia NCTC 13443 = test: General MIC protocol, Gram negative; conditions: Klebsiella pneumoniae, NCTC13443
Summary of the method: as §1

K. pneumonia M6 = test: General MIC protocol, Gram negative; conditions: Klebsiella pneumoniae; KP-M6
Summary of the method: as §1

A. baumannii NCTC 17978 = test: General MIC protocol, Gram negative; conditions: Acinetobacter baumannii, NCTC17978
Summary of the method: as §1

K. pneumonia NCTC 51851 = test: General MIC protocol, Gram negative; conditions: Klebsiella pneumoniae, NCTC51851
Summary of the method: as §1

P. aeruginosa NCTC 13437 = test: General MIC protocol, Gram negative
Summary of the method: as §1

K. pneumonia NCTC 13438 = test: General MIC protocol, Gram negative; conditions: Klebsiella pneumoniae, NCTC13438
Summary of the method: as §1

[2] = Pseudomonas aeruginosa, NCTC13437

SMILES | MIC (Psueudomonas GH12) [µg/mL] | viable count ([1]; time-point 1 hours) [CFU/mL] | Average (CFU/ml) ([1]; time-point 2 hours) | viable count ([1]; time-point 2 hours) [CFU/mL] | Average (CFU/ml) ([1]; time-point 4 hours) | n = 2 (CFU/ml) ([1]; time-point 4 hours) | viable count ([1]; time-point 4 hours) [CFU/mL] | Average (CFU/ml) ([1]; time-point 6 hours) | n = 2 (CFU/ml) ([1]; time-point 6 hours) | viable count ([1]; time-point 6 hours) [CFU/mL] | Average (CFU/ml) ([1]; time-point 24 hours) | n = 2 (CFU/ml) ([1]; time-point 24 hours) | viable count ([1]; time-point 24 hours) [CFU/mL] | MIC (K. pneumonia KP16) [µg/mL] | MIC (A. baumannii AYE) [µg/mL] | MIC (K. pneumonia NCTC 13368) [µg/mL] | MIC (K. pneumonia NCTC 13443) [µg/mL] | MIC (K. pneumonia M6) [µg/mL] | MIC (A. baumannii NCTC 17978) [µg/mL] | MIC (K. pneumonia NCTC 51851) [µg/mL] | also measured
O=C(O)c1cn(C2CC2)c2cc(N3CCNCC3)c(F)cc2c1=O [CIP, ciprofloxacin, reference compound] | 16 (≈ 48.3 µM) | 7e+06 | 118000 | 350000 | 75.3 | 55 | 0 | 65.3 | 80 | 0 | 0 | 0 | 0 |  |  |  |  |  |  |  | Average (CFU/ml) ([1]; time-point 1 hours): 2.38e+06 CFU/ml; n = 2 (CFU/ml) ([1]; time-point 1 hours): 110000 CFU/ml; n = 3 (CFU/ml) ([1]; time-point 1 hours): 28000 CFU/ml; n = 2 (CFU/ml) ([1]; time-point 2 hours): 650 CFU/ml; n = 3 (CFU/ml) ([1]; time-point 2 hours): 2500 CFU/ml; n = 3 (CFU/ml) ([1]; time-point 4 hours): 170 CFU/ml; n = 3 (CFU/ml) ([1]; time-point 6 hours): 115 CFU/ml; n = 3 (CFU/ml) ([1]; time-point 24 hours): 0 CFU/ml
COc1cc2c(cc1OCCCC(=O)Nc1cc(C(=O)Nc3ccc4oc(C(=O)N5CCSCC5)cc4c3)n(C)c1)N=C[C@@H]1CCCN1C2=O [PP-A148, (S)-4-(4-((7-methoxy-5-oxo-2,3,5,11a-tetrahydro-1H-benzo-[e]pyrrolo[1,2-a][1,4]diazepin-8-yl)oxy)butanamido)-1-methyl-N-(2-(thiomorpholine-4-carbonyl)benzofuran-5-yl)-1H-pyrrole-2-carboxamide] | > 128 |  |  |  |  |  |  |  |  |  |  |  |  | 0.25 to 0.5 (≈ 0.358 to 0.716 µM) | 2 (≈ 2.86 µM) | 16 to 32 (≈ 22.9 to 45.8 µM) | 16 (≈ 22.9 µM) | 0.25 to 0.5 (≈ 0.358 to 0.716 µM) | 2 (≈ 2.86 µM) | 4 (≈ 5.72 µM) | MIC (P. aeruginosa NCTC 13437; [2]): 16 µg/mL (≈ 22.9 µM); MIC (K. pneumonia NCTC 13438): 4 to 8 µg/mL (≈ 5.72 to 11.4 µM)
COc1cc2c(cc1OCCCC(=O)Nc1cc(C(=O)Nc3ccc4sc(C(=O)N(C)C)cc4c3)n(C)c1)N=C[C@@H]1CCCN1C2=O [KMR-14-33, (S)—N-(2-(dimethylcarbamoyl)benzo[b]thiophen-5-yl)-4-(4-((7-methoxy-5-oxo-2,3,5,11a-tetrahydro-1H-benzo[e]pyrrolo[1,2-a][1,4]-diazepin-8-yl)oxy)butanamido)-1-methyl-1H-pyrrole-2-carboxamide] |  | 1.7e+06 | 505000 | 110000 | 0 | 0 | 0 | 0 | 0 | 0 | 0 | 0 | 0 | 0.25 (≈ 0.381 µM) | 1 (≈ 1.52 µM) | 2 (≈ 3.05 µM) | 2 (≈ 3.05 µM) | 1 (≈ 1.52 µM) | 0.5 (≈ 0.761 µM) | 2 (≈ 3.05 µM) | MIC (P. aeruginosa NCTC 13437; NCTC 13437, KMR-14-33 alone): 32 µg/mL (≈ 48.7 µM); MIC (P. aeruginosa NCTC 13437; [2]): > 32 µg/mL; MIC (K. pneumonia NCTC 13438): 0.5 µg/mL (≈ 0.761 µM); Average (Log CFU/ml) ([1]; time-point 1 hours): 18850000 CFU/ml; n = 2 (Log CFU/ml) ([1]; time-point 1 hours): 36000000 CFU/ml; n = 2 (Log CFU/ml) ([1]; time-point 2 hours): 900000 CFU/ml
